Experimental data reported in US8334315B2, “Substituted aromatic carboxamide and urea derivatives as vanilloid receptor ligands” (Gruenenthal GmbH, priority 2009, dated 2012).
Values belong to the molecule of their own block, whether it stands above or below them.

Tests used:
hVR1 [1] = target: T1, hVR1 (Homo sapiens, UniProt Q8NER1); experiment: Functional test on VR1, FLIPR Ca2+ influx in transfected CHO K1 cells, capsaicin; format: cell-based, human being; set-up: key to Ki (human being) [nM] Cap: agonist / partial agonist / no effect: AG=agonist; pAG=partial agonist; NE=no effect; conditions: for Ki: capsaicin (Cap), includes values given in brackets after pAG, read-out: Ki (human being) [nM] Cap
T1 construct: expressed in transfected cells; host or cells: CHO K1 cells (ECACC), stably transfected
T1 sequence (Q8NER1 whole entry): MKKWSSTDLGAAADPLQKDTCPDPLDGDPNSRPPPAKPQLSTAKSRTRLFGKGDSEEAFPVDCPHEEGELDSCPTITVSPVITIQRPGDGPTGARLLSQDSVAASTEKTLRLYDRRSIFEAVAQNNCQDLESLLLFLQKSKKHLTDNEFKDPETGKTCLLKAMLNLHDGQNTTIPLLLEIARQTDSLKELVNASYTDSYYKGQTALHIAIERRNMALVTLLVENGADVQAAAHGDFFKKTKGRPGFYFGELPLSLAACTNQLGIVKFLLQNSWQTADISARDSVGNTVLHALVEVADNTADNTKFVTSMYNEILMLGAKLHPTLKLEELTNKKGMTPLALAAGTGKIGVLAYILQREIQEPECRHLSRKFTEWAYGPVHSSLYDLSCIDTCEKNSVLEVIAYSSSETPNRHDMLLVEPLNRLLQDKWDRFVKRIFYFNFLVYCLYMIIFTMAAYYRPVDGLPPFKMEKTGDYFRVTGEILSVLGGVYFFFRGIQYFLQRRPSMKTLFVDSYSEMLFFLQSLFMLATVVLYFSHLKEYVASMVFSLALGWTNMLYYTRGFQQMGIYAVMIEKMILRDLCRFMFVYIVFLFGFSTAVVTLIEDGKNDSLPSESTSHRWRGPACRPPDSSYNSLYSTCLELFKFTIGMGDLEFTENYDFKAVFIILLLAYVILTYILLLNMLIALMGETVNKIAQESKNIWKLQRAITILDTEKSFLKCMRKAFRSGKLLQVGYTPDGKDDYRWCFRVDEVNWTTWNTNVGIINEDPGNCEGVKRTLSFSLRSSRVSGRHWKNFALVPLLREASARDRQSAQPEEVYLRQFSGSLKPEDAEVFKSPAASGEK
Excerpt: In the process, the Ca^2+ influx is quantified in the FLIPR assay with the aid of a Ca^2+-sensitive dye (type Fluo-4, Molecular Probes Europe BV, Leiden, the Netherlands) in a fluorescent imaging plate reader (FLIPR, Molecular Devices, Sunnyvale, USA), as described hereinafter.
II. Functional Tests Carried Out on the Vanilloid Receptor (VR1)
The agonistic or antagonistic effect of the substances to be tested on the vanilloid receptor 1 (VR1) can also be determined using the following assay. In this assay, the influx of Ca^2+ through the channel is quantified with the aid of a Ca^2+-sensitive dye (type Fluo-4, Molecular Probes Europe BV, Leiden, the Netherlands) in a fluorescent imaging plate reader (FLIPR, Molecular Devices, Sunnyvale, USA).
Chinese hamster ovary cells (CHO K1 cells, European Collection of Cell Cultures (ECACC) United Kingdom) are stably transfected with the VR1 gene. For functional testing, these cells are plated out on poly-D-lysine-coated black 96-well plates having a clear base (BD Biosciences, Heidelberg, Germany) at a density of 25,000 cells/well. The cells are incubated overnight at 37° C. and 5% CO2 in a culture medium (Ham's F12 nutrient mixture, 10% by volume of FCS (foetal calf serum), 18 μg/ml of L-proline). The next day the cells are incubated with Fluo-4 (Fluo-4 2 μM, 0.01% by volume of Pluronic F127, Molecular Probes in HBSS (Hank's buffered saline solution), Gibco Invitrogen GmbH, Karlsruhe, Germany) for 30 minutes at 37° C. Subsequently, the plates are washed three times with HBSS buffer and after further incubation for 15 minutes at RT used for Ca^2+ measurement in a FLIPR assay. The Ca^2+-dependent fluorescence is measured before and after the addition of the substances to be tested (λex wavelength=488 nm, λem=540 nm). Quantification is carried out by measuring the highest fluorescence intensity (FC, fluorescence counts) over time.
The FLIPR protocol consists of 2 substance additions. First the compounds to be tested (10 μM) are pipetted onto the cells and the Ca^2+ influx is compared with the control (capsaicin 10 μM) (% activation based on the Ca^2+ signal after the addition of 10 μM of capsaicin). After 5 minutes' incubation, 100 nM of capsaicin are applied and the Ca^2+ influx is also determined.
Desensitising agonists and antagonists led to suppression of the Ca^2+ influx. The % inhibition is calculated compared to the maximum achievable inhibition with 10 μM of capsaicin.
Starting from the percentage displacement caused by different concentrations of the compounds to be tested of general formula I, IC50 inhibitory concentrations which cause a 50-per cent displacement of capsaicin were calculated. Ki values for the test substances were obtained by conversion by means of the Cheng-Prusoff equation (Cheng, Prusoff; Biochem. Pharmacol. 22, 3099-3108, 1973).
The affinity of the compounds according to the invention for the vanilloid receptor 1 (VR1/TRPV1 receptor) was determined as described hereinbefore (pharmacological methods I and II respectively).

hVR1 [2] = target: T1, hVR1; experiment: Functional test on hVR1 after pH stimulus; format: cell-based, human being; set-up: key to IC50 (human being) hVR1, pH: agonist / partial agonist / no effect: AG=agonist; pAG=partial agonist; NE=no effect; conditions: for inhibition at 10 µM: read-out: IC50 (human being) hVR1, pH: inhibition (as a percentage); for IC50: includes value printed in brackets after pAG, read-out: IC50 (human being) hVR1 [nM], pH
hVR1 [3] = target: T1, hVR1; experiment: Functional test on human VR1, 45° C. stimulus; format: cell-based, human being; set-up: key to IC50 (human being), 45° C.: agonist / partial agonist / no effect: AG=agonist; pAG=partial agonist; NE=no effect; conditions: for IC50: read-out: IC50 (human being) [nM], 45° C.
[4] = target: T2, rat-species vanilloid receptor 1 (VR1/TRPV1) (Rattus norvegicus, UniProt O35433); experiment: Functional testing on the vanilloid receptor 1, FLIPR Ca2+ influx in rat DRG cells, capsaicin; format: cell-based; set-up: key to Ki (rat) [nM] Cap: agonist / partial agonist / no effect: AG=agonist; pAG=partial agonist; NE=no effect; conditions: for Ki: capsaicin (Cap), includes values given in brackets after pAG
T2 construct: endogenous in cells; host or cells: primary cells dissociated from rat dorsal root ganglia (DRG), cultured 2-3 days with NGF
T2 sequence (O35433 whole entry): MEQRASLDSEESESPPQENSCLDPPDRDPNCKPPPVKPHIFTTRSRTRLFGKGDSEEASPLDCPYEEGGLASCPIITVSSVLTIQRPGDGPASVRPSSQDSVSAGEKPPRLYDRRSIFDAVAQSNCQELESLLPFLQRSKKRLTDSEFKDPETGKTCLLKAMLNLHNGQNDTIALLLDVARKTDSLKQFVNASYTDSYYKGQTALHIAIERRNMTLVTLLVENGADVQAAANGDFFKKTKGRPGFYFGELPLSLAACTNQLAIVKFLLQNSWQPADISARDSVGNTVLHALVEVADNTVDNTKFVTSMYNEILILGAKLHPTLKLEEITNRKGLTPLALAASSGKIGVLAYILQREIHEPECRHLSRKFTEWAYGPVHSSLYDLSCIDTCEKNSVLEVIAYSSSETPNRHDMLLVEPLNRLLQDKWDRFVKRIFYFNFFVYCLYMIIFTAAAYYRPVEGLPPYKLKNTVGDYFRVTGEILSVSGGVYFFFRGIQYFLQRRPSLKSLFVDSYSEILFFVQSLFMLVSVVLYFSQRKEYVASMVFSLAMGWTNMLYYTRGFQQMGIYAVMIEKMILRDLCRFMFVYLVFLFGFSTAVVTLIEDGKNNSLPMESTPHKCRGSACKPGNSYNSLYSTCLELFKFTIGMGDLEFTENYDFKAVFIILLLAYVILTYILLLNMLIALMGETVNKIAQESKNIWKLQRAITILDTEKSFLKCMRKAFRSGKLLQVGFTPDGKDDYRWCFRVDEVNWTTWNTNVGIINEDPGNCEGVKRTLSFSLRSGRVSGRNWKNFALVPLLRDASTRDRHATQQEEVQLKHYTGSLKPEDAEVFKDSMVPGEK
Excerpt: I. Functional Testing Carried Out on the Vanilloid Receptor 1 (VRI/TRPV1 Receptor)
The agonistic or antagonistic effect of the substances to be tested on the rat-species vanilloid receptor 1 (VR1/TRPV1) can be determined using the following assay. In this assay, the influx of Ca^2+ through the receptor channel is quantified with the aid of a Ca^2+-sensitive dye (type Fluo-4, Molecular Probes Europe BV, Leiden, the Netherlands) in a fluorescent imaging plate reader (FLIPR, Molecular Devices, Sunnyvale, USA).
Complete medium: 50 ml HAMS F12 nutrient mixture (Gibco Invitrogen GmbH, Karlsruhe, Germany) with
10% by volume of FCS (foetal calf serum, Gibco Invitrogen GmbH, Karlsruhe, Germany, heat-inactivated);
2 mM L-glutamine (Sigma, Munich, Germany);
1% by weight of AA solution (antibiotic/antimyotic solution, PAA, Pasching, Austria) and 25 ng/ml NGF medium (2.5 S, Gibco Invitrogen GmbH, Karlsruhe, Germany)
Cell culture plate: Poly-D-lysine-coated, black 96-well plates having a clear base (96-well black/clear plate, BD Biosciences, Heidelberg, Germany) are additionally coated with laminin (Gibco Invitrogen GmbH, Karlsruhe, Germany), the laminin being diluted with PBS (Ca—Mg-free PBS, Gibco Invitrogen GmbH, Karlsruhe, Germany) to a concentration of 100 μg/ml. Aliquots having a laminin concentration of 100 μg/ml are removed and stored at −20° C. The aliquots are diluted with PBS in a ratio of 1:10 to 10 μg/ml of laminin and respectively 50 μL of the solution are pipetted into a recess in the cell culture plate. The cell culture plates are incubated for at least two hours at 37° C., the excess solution is removed by suction and the recesses are each washed twice with PBS. The coated cell culture plates are stored with excess PBS which is not removed until just before the feeding of the cells.
Preparation of the Cells:
The vertebral column is removed from decapitated rats and placed immediately into cold HBSS buffer (Hank's buffered saline solution, Gibco Invitrogen GmbH, Karlsruhe, Germany), i.e. buffer located in an ice bath, mixed with 1% by volume (per cent by volume) of an AA solution (antibiotic/antimyotic solution, PAA, Pasching, Austria). The vertebral column is cut longitudinally and removed together with fasciae from the vertebral canal. Subsequently, the dorsal root ganglia (DRG) are removed and again stored in cold HBSS buffer mixed with 1% by volume of an AA solution. The DRG, from which all blood remnants and spinal nerves have been removed, are transferred in each case to 500 μL of cold type 2 collagenase (PAA, Pasching, Austria) and incubated for 35 minutes at 37° C. After the addition of 2.5% by volume of trypsin (PAA, Pasching, Austria), incubation is continued for 10 minutes at 37° C. After complete incubation, the enzyme solution is carefully pipetted off and 500 μL of complete medium are added to each of the remaining DRG. The DRG are respectively suspended several times, drawn through cannulae No. 1, No. 12 and No. 16 using a syringe and transferred to a 50 ml Falcon tube which is filled up to 15 ml with complete medium. The contents of each Falcon tube are respectively filtered through a 70 μm Falcon filter element and centrifuged for 10 minutes at 1,200 rpm and RT. The resulting pellet is respectively taken up in 250 μL of complete medium and the cell count is determined.
The number of cells in the suspension is set to 3×10^5 per ml and 150 μL of this suspension are in each case introduced into a recess in the cell culture plates coated as described hereinbefore. In the incubator the plates are left for two to three days at 37° C., 5% by volume of CO2 and 95% relative humidity. […]

Compound: O=C(NCc1cc(C(F)(F)F)nn1-c1cccc(Cl)c1)Nc1ccc2ncsc2c1 [Example 96, 1-(benzo[d]thiazol-6-yl)-3-((1-(3-chlorophenyl)-3-(trifluoromethyl)-1H-pyrazol-5-yl)methyl)urea]
Ki (human being) [nM] Cap: agonist / partial agonist / no effect (hVR1 [1]): pAG
Ki (hVR1 [1]): 7.3 nM
IC50 (human being) hVR1, pH: agonist / partial agonist / no effect (hVR1 [2]): pAG

Compound: Cc1cc2c(C(C)C(=O)NCc3cc(C(F)(F)F)nn3-c3cccc(Cl)c3)cccc2cn1 (stereo not shown) [Example 65, N-((1-(3-chlorophenyl)-3-(trifluoromethyl)-1H-pyrazol-5-yl)methyl)-2-(3-methylisoquinolin-5-yl)propanamide]
Ki (hVR1 [1]): 0.3 nM
inhibition at 10 µM (hVR1 [2]): 23%
IC50 (hVR1 [3]): 780 nM

Compound: CC(C(=O)NCc1cc(C(C)(C)C)nn1-c1cccc(Cl)c1)c1ccc2c(c1)OCCCO2 (stereo not shown) [Example 15, N-((3-tert-butyl-1-(3-chlorophenyl)-1H-pyrazol-5-yl)methyl)-2-(3,4-dihydro-2H-benzo[b][1,4]dioxepin-7-yl)propanamide]
Ki (human being) [nM] Cap: agonist / partial agonist / no effect (hVR1 [1]): pAG
Ki (hVR1 [1]): 25 nM
IC50 (human being) hVR1, pH: agonist / partial agonist / no effect (hVR1 [2]): pAG
IC50 (hVR1 [2]): 412 nM
IC50 (human being), 45° C.: agonist / partial agonist / no effect (hVR1 [3]): pAG
Ki (rat) [nM] Cap: agonist / partial agonist / no effect [4]: AG

Compound: CC(C(=O)NCc1cc(C(C)(C)C)nn1-c1cccc(Cl)c1)c1cccc2ncccc12 (stereo not shown) [Example 70, N-((3-tert-butyl-1-(3-chlorophenyl)-1H-pyrazol-5-yl)methyl)-2-(quinolin-5-yl)propanamide]
Ki (human being) [nM] Cap: agonist / partial agonist / no effect (hVR1 [1]): AG
IC50 (human being) hVR1, pH: agonist / partial agonist / no effect (hVR1 [2]): AG
IC50 (human being), 45° C.: agonist / partial agonist / no effect (hVR1 [3]): AG

Compound: CC(C(=O)NCc1cc(C(F)(F)F)nn1-c1cccc(Cl)c1)c1ccc2[nH]ncc2c1 (stereo not shown) [Example 35, N-((1-(3-chlorophenyl)-3-(trifluoromethyl)-1H-pyrazol-5-yl)methyl)-2-(1H-indazol-5-yl)propanamide]
Ki (human being) [nM] Cap: agonist / partial agonist / no effect (hVR1 [1]): pAG
Ki (hVR1 [1]): 0.3 nM
IC50 (human being) hVR1, pH: agonist / partial agonist / no effect (hVR1 [2]): pAG
IC50 (human being), 45° C.: agonist / partial agonist / no effect (hVR1 [3]): pAG

More lines, now with the values ahead:

Ki (hVR1 [1]): 35.4 nM
inhibition at 10 µM (hVR1 [2]): 23%
inhibition at 10 µM (hVR1 [3]; @ 10 μM, read-out: IC50 (human being), 45° C.: inhibition (as a percentage)): -17%
Ki [4]: 34.2 nM
Compound: CC(C(=O)NCc1cc(C(C)(C)C)nn1-c1cccc(Cl)c1)c1ccc2nccnc2c1 (stereo not shown) [Example 77, N-((3-tert-butyl-1-(3-chlorophenyl)-1H-pyrazol-5-yl)methyl)-2-(quinoxalin-6-yl)propanamide]

Ki (hVR1 [1]): 51.6 nM
IC50 (hVR1 [3]): 235 nM
Ki [4]: 181 nM
Compound: O=C(NCc1cc(C(F)(F)F)nn1-c1cccc(Cl)c1)Nc1ccc2c(c1)OCCO2 [Example 84, 1-((1-(3-chlorophenyl)-3-(trifluoromethyl)-1H-pyrazol-5-yl)methyl)-3-(2,3-dihydrobenzo[b][1,4]dioxin-6-yl)urea]

Ki (human being) [nM] Cap: agonist / partial agonist / no effect (hVR1 [1]): pAG
Ki (hVR1 [1]): 2.4 nM
IC50 (human being) hVR1, pH: agonist / partial agonist / no effect (hVR1 [2]): pAG
Compound: CC(C(=O)NCc1cc(C(F)(F)F)nn1-c1cccc(Cl)c1)c1ccc2[nH]ccc2c1 (stereo not shown) [Example 31, N-((1-(3-chlorophenyl)-3-(trifluoromethyl)-1H-pyrazol-5-yl)methyl)-2-(1H-indol-5-yl)propanamide]

Ki (hVR1 [1]): 0.7 nM
IC50 (hVR1 [2]): 4930 nM
inhibition at 2.5 µM (hVR1 [3]; @ 2.5 μM, read-out: IC50 (human being), 45° C.: inhibition (as a percentage)): 41%
Ki [4]: 7.6 nM
Compound: CC(C(=O)NCc1cc(C(F)(F)F)nn1-c1cccc(Cl)c1)c1cccc2ccc(O)cc12 (stereo not shown) [Example 58, N-((1-(3-chlorophenyl)-3-(trifluoromethyl)-1H-pyrazol-5-yl)methyl)-2-(7-hydroxynaphthalen-1-yl)propanamide]

Ki (rat) [nM] Cap: agonist / partial agonist / no effect [4]: AG
Compound: CC(C(=O)NCc1cc(C(C)(C)C)nn1-c1cccc(Cl)c1)c1cccc2c1OCCO2 (stereo not shown) [Example 14, N-((3-tert-butyl-1-(3-chlorophenyl)-1H-pyrazol-5-yl)methyl)-2-(2,3-dihydrobenzo[b][1,4]dioxin-5-yl)propanamide]
